Measurements taken from patent US11339130B1 (Blade Therapeutics, Inc., priority 2016, dated 2022).
Like-named read-outs stand apart in the source and are kept apart here.

How the values were obtained:
Human Calpain 1/NS1 = molecular target: T1, Human Calpain 1/NS1 (Homo sapiens, UniProt P07384); assay: Calpain inhibition continuous fluorescence (FRET) assay, Human Calpain 1/NS1; format: biochemical; settings: read-out: Human Calpain 1/NS1 IC50
T1 sequence (P07384 1-714): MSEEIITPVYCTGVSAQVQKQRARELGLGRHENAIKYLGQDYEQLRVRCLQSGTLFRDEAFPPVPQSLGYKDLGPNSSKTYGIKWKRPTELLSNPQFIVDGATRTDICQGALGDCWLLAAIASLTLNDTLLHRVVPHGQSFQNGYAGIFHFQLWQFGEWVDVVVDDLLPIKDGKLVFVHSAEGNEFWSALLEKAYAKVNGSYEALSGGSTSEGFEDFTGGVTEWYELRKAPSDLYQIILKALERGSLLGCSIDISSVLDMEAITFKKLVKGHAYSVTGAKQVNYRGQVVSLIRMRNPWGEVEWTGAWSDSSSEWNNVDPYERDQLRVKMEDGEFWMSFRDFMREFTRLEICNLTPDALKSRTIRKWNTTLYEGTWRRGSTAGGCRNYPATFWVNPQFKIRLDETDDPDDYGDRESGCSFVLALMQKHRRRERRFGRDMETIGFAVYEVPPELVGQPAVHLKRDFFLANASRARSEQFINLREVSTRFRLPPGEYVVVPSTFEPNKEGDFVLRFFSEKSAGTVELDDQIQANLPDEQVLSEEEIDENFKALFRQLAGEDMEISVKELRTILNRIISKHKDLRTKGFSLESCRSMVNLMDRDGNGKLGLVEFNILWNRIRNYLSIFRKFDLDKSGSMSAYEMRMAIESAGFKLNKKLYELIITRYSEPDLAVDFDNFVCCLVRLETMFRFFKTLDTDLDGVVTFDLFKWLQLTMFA
T1 sequence (P04632 1-268 partner): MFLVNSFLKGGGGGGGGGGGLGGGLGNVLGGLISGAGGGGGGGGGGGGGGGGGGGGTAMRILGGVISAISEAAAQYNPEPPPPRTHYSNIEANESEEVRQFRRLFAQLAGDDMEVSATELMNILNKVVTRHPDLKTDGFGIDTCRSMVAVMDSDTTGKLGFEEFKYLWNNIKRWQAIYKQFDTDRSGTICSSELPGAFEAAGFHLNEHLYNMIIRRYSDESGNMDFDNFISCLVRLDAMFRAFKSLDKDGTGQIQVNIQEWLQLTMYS
In short: (§1)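 Continuous FRET read (ex 490/em 520 nm, 10 min) of calpain 1, 2 or 9 cleaving an internally quenched 5-FAM peptide, triggered by substrate with CaCl2 after enzyme–inhibitor incubation at ambient 25 °C, pH 7.5 Tris/NaCl/DTT buffer. IC50 from initial rates (1-5 min) via 4-parameter fit.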

Human Calpain 2/NS1 = molecular target: T2, Human Calpain 2/NS1 (Homo sapiens, UniProt P17655); assay: Calpain inhibition continuous fluorescence (FRET) assay, Human Calpain 2/NS1; format: biochemical; settings: read-out: Human Calpain 2/NS1 IC50
T2 sequence (P17655 1-700): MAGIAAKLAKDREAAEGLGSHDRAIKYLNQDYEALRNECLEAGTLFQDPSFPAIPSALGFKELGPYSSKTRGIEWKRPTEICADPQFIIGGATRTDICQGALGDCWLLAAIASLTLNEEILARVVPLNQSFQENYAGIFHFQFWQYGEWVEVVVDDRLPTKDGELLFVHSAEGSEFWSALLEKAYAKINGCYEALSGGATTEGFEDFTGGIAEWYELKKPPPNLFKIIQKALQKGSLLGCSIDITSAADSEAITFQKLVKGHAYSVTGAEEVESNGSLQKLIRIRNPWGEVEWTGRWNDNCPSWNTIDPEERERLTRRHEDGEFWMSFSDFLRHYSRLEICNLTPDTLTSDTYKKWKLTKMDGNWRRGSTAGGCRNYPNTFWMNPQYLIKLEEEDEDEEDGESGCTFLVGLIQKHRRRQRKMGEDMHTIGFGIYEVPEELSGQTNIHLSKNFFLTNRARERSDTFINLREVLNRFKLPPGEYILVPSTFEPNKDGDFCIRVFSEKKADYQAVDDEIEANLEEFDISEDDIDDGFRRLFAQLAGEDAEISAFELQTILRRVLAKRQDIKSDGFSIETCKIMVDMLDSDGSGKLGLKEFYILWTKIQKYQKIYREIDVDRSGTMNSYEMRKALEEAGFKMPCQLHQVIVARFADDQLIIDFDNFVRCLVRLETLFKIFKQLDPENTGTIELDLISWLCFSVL
T2 sequence (P04632 1-268 partner): T1 sequence (P04632 1-268 partner)
In short: as §1

Human Calpain 9/NS1 = molecular target: T3, Human Calpain 9/NS1 (Homo sapiens, UniProt O14815); assay: Calpain inhibition continuous fluorescence (FRET) assay, Human Calpain 9/NS1; format: biochemical; settings: read-out: Human Calpain 9/NS1 IC50
T3 sequence (O14815 1-690): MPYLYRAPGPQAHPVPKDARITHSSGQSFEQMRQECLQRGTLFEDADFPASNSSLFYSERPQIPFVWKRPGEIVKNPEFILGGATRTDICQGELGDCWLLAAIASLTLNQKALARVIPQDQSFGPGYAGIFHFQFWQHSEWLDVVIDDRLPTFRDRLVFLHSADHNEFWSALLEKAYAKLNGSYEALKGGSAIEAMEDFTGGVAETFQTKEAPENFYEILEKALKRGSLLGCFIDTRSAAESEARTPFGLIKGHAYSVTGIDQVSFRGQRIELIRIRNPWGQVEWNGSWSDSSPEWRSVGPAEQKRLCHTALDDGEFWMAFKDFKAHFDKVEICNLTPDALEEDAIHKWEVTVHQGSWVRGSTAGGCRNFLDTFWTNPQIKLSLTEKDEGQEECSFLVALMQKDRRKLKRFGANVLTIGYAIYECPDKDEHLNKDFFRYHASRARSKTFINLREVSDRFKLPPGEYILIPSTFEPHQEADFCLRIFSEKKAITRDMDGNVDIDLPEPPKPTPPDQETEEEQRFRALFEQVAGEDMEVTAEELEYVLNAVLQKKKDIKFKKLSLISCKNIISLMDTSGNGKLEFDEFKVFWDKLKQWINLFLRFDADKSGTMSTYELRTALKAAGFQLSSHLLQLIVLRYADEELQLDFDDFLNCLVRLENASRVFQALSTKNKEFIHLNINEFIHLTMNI
T3 sequence (P04632 1-268 partner): T1 sequence (P04632 1-268 partner)
In short: as §1

[1] = test system: Calpain activity in SH-SY5Y cells (SBDP-150); assay: SH-SY5Y Spectrin western blot assay (SBDP-150 breakdown product, A23187-induced); format: cell-based; settings: read-out: SH-SY5Y Spectrin IC50
[2] = test system: Calpain activity in SH-SY5Y cells; assay: SH-SY5Y + AMC fluorescence assay (Suc-LLVY-AMC substrate); format: cell-based; settings: read-out: SH-SY5Y + AMC IC50
[3] = Homo sapiens, SH-SY5Y cells, A23187-induced SBDP-150, western blot
[4] = Column D, SH-SY5Y cells, A23187-induced SBDP-150
[5] = SH-SY5Y cells, A23187-induced SBDP-150, western blot

IC50 (Human Calpain 1/NS1) [µM]	IC50 (Human Calpain 2/NS1) [µM]	IC50 (Human Calpain 9/NS1) [µM]	IC50 [1, 3] [µM]	IC50 [2] [µM]	IC50 (Human Calpain 1/NS1; Column A) [µM]	IC50 (Human Calpain 2/NS1; Column B) [µM]	IC50 (Human Calpain 9/NS1; Column C) [µM]	IC50 [1, 4] [µM]	IC50 ([2]; Column E) [µM]	IC50 [1, 5] [µM]	Compound	IC50 ([1]; Homo sapiens, SH-SY5Y) [µM]
< 3	< 3	< 3	< 10	< 10	–	–	–	–	–	–	NC(=O)C(=O)C(Cc1ccccc1)NC(=O)c1cn(C(F)F)nc1-c1cccc2cnccc12 (centres unmarked) [Compound 598, N-(4-amino-3,4-dioxo-1-phenylbutan-2-yl)-1-(difluoromethyl)-3-(isoquinolin-5-yl)-1H-pyrazole-4-carboxamide]	–
< 3	< 3	< 3	10 to 25	> 25	–	–	–	–	–	–	Cc1cncc(-c2oncc2C(=O)NC(Cc2ccccc2)C(=O)C(N)=O)c1 (centres unmarked) [Compound 600, N-(4-amino-3,4-dioxo-1-phenylbutan-2-yl)-5-(5-methylpyridin-3-yl)isoxazole-4-carboxamide]	–
3 to 10	< 3	3 to 10	> 25	> 25	–	–	–	–	–	–	Cn1cc(C(=O)NC(Cc2ccccc2)C(=O)C(N)=O)c(N2CCN(C(=O)OCc3ccccc3)CC2)n1 (centres unmarked) [Compound 601, Benzyl 4-(4-((4-amino-3,4-dioxo-1-phenylbutan-2-yl)carbamoyl)-1-methyl-1H-pyrazol-3-yl)piperazine-1-carboxylate]	–
< 3	< 3	< 3	10 to 25	> 25	–	–	–	–	–	–	Cn1cc(C(=O)NC(Cc2ccccc2)C(=O)C(N)=O)c(-c2cc3ccccc3cn2)n1 (centres unmarked) [Compound 602, N-(4-amino-3,4-dioxo-1-phenylbutan-2-yl)-3-(isoquinolin-3-yl)-1-methyl-1H-pyrazole-4-carboxamide]	–
< 3	< 3	< 3	> 25	< 10	–	–	–	–	–	–	Cn1cc(C(=O)NC(Cc2ccccc2)C(=O)C(N)=O)c(-c2ccccc2Cl)n1 (centres unmarked) [Compound 604, N-(4-amino-3,4-dioxo-1-phenylbutan-2-yl)-3-(2-chlorophenyl)-1-methyl-1H-pyrazole-4-carboxamide]	–
< 3	< 3	< 3	> 25	> 25	–	–	–	–	–	–	Cn1cc(C(=O)NC(Cc2ccccc2)C(=O)C(N)=O)c(-c2cnc3ccccc3c2)n1 (centres unmarked) [Compound 605, N-(4-amino-3,4-dioxo-1-phenylbutan-2-yl)-1-methyl-3-(quinolin-3-yl)-1H-pyrazole-4-carboxamide]	–
< 3	< 3	< 3	10 to 25	> 25	–	–	–	–	–	–	Cn1cc(C(=O)NC(Cc2ccccc2)C(=O)C(N)=O)c(-c2cccc3cnccc23)n1 (centres unmarked) [Compound 607, N-(4-amino-3,4-dioxo-1-phenylbutan-2-yl)-3-(isoquinolin-5-yl)-1-methyl-1H-pyrazole-4-carboxamide]	–
< 3	< 3	< 3	10 to 25	> 25	–	–	–	–	–	–	NC(=O)C(=O)C(Cc1ccccc1)NC(=O)C1CCCN1c1ccccc1 (centres unmarked) [compound 541]	–
–	–	–	–	–	< 3	< 3	< 3	< 10	10 to 25	–	(S)—N-(4-amino-3,4-dioxo-1-phenylbutan-2-yl)-3-methyl-1-(5-methylpyridin-2-yl)-1H-pyrazole-5-carboxamide [Compound 121]	–
–	–	–	–	–	< 3	< 3	< 3	10 to 25	< 10	–	(S)—N-(4-amino-3,4-dioxo-1-phenylbutan-2-yl)-4-(2-fluorophenyl)-2-methyloxazole-5-carboxamide [Compound 267]	–
–	–	–	–	–	< 3	< 3	< 3	< 10	> 25	–	Methyl (S)-(4-(5-((4-amino-3,4-dioxo-1-phenylbutan-2-yl)carbamoyl)-3-methyl-1H-pyrazol-1-yl)benzyl)carbamate [Compound 161]	–
< 3	< 3	< 3	–	< 10	–	–	–	–	–	< 10	N-(4-amino-3,4-dioxo-1-phenylbutan-2-yl)-1-(2-cyanopyrimidin-4-yl)-3-methyl-1H-pyrazole-5-carboxamide [Compound 448]	–
< 3	< 3	< 3	–	> 25	–	–	–	–	–	< 10	N-(4-amino-3,4-dioxo-1-phenylbutan-2-yl)-1-methyl-3-(5-methylthiophen-2-yl)-1H-pyrazole-4-carboxamide [Compound 505]	–
< 3	< 3	< 3	–	10 to 25	–	–	–	–	–	10 to 25	N-(4-amino-3,4-dioxo-1-phenylbutan-2-yl)-3-(5-fluoropyridin-3-yl)-1-methyl-1H-pyrazole-4-carboxamide [Compound 506]	–
< 3	< 3	< 3	–	> 25	–	–	–	–	–	< 10	N-(4-amino-3-hydroxy-4-oxo-1-phenylbutan-2-yl)-4-(4-((benzyloxy)methyl)phenyl)-1,2,5-thiadiazole-3-carboxamide [Compound 369]	–

Compound	IC50 (Human Calpain 1/NS1) [µM]	IC50 (Human Calpain 2/NS1) [µM]	IC50 (Human Calpain 9/NS1) [µM]	IC50 [1, 3] [µM]	IC50 [2] [µM]	IC50 (Human Calpain 1/NS1; Column A) [µM]	IC50 (Human Calpain 2/NS1; Column B) [µM]	IC50 (Human Calpain 9/NS1; Column C) [µM]	IC50 [1, 4] [µM]	IC50 ([2]; Column E) [µM]	IC50 [1, 5] [µM]	IC50 ([1]; Homo sapiens, SH-SY5Y) [µM]
Cn1cc(C(=O)NC(Cc2ccccc2)C(=O)C(N)=O)c(N2CCN(C(=O)OC(C)(C)C)CC2)n1 (centres unmarked) [Compound 603, Tert-Butyl 4-(4-((4-amino-3,4-dioxo-1-phenylbutan-2-yl)carbamoyl)-1-methyl-1H-pyrazol-3-yl)piperazine-1-carboxylate]	3 to 10	3 to 10	3 to 10	–	> 25	–	–	–	–	–	–	> 25
